We go through 1 compound from US12263166B2, “Methods of treating cancers having a BRCA1 and/or BRCA2 mutation(s)” (Dana-Farber Cancer Institute, Inc., priority 2017, dated 2025).

Assay [1] has as its system UWB1.289 (BRCA1-mutant ovarian cancer cell line). The assay is described as follows: Colony formation (sensitivity) assay in UWB1.289. Type of assay: cell-based. As to conditions: BRCA1-mutant UWB1.289, compared to UWB1.289+BRCA1. The protocol: (§1) Cells were transfected with siRNA or plasmid 18-24 h before being plated for colony formation assays. Cells were counted and plated in triplicates in 6-well plates. For treatment with ML323, plated cells were allowed to adhere overnight before treatment with ML323 the next day. At the end of the experiment, cells were fixed with methanol for 10 min at −20° C. then stained with crystal violet. Quantification of cell growth area was performed with ImageJ.

In assay [2] the test system is BRCA1 deficient MDA-MB-436 cells. The assay is described as follows: Replication combing (fiber) assay in MDA-MB-436 after hydroxyurea. Format: cell-based. As to conditions: 10 μM ML323 for 24 h; effect not increased with USP1 silencing. The protocol:
FIG. 20B. Schematic of the experimental design for the fiber assay, graphical quantification of fiber assay measuring replication fork stability in MDA-MB-436 cells following treatment with either siCtrl or siUSP1, untreated or treated with 10 μM of ML323 for 24 h.
Replication combing assay was performed using the FiberComb machine (Genomic Vision, Bagneux, France). Br iefly, cells were treated with CldU, IdU then HU, with 3 PBS washes between each treatment. Cells were then trypsinized, counted and embedded in low melting point agarose plugs, then treated with proteinase k overnight. Agarose plugs were then washed and digested with agarase. Agarase-treated samples were then poured into FiberComb wells and combed onto silanized coverslips. Coverslips were probed with rat anti-BrdU antibody (clone BU1/75 (ICR1) specific to CldU, Life Technologies, Woburn, MA, #MA1-82088) and mouse anti-BrdU Antibody (specific to IdU, BD Biosciences, Woburn, MA, #347580) and visualized by fluorescence microscopy. Pictures were taken of at least 100 fibers per condition. Fibers were measured with ImageJ and graphed.

Assay [3] deals with T1, wild-type, full-length USP1 (Homo sapiens, UniProt O94782).
T1 construct: purchased Boston Biochem / R&D systems E564
T1 sequence (O94782 1-785): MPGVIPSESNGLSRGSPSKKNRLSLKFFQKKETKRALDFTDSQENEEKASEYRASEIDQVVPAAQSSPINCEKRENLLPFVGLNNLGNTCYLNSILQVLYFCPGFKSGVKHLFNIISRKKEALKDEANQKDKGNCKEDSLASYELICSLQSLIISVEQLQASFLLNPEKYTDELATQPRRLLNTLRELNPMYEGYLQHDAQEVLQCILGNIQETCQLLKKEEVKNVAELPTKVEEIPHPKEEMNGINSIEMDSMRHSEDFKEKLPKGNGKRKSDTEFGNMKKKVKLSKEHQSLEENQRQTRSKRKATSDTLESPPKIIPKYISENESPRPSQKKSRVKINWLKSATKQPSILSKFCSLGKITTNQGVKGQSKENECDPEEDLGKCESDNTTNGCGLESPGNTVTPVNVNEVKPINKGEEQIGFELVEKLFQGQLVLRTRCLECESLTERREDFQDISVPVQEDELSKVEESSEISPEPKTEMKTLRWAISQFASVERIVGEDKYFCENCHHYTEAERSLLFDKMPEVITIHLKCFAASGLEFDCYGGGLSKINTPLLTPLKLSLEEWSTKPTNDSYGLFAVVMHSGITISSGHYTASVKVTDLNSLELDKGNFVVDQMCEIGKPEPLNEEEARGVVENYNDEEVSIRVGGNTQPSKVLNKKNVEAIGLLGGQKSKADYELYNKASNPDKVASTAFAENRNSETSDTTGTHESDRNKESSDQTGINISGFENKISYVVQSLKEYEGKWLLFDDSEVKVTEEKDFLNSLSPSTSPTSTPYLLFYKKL
Briefly: Ub-CHOP2 deubiquitination assay, WT-USP1. Type of assay: biochemical. On the procedure: (§2) FIG. 11B. Ub-CHOP2 assay of WT-USP1 and Trunc-USP1 with and without USP1 inhibitor ML323.
(§3) Preparation of recombinant USP1 and UAF1 wild type and mutant proteins in SF9 cells and Ub-AMC assays were performed by the method as described in Cohn M A, Kowal P, et al. A UAF1-containing multisubunit protein complex regulates the Fanconi anemia pathway. Molecular cell. 2007; 28(5):786-97. Ub-CHOP2 assays (Life Sensors, Malvern, PA, PR1101) were performed according to manufacturer's instructions. Ub-AMC assays were performed by the methods as described in Cohn M A et al., UAF1 is a subunit of multiple deubiquitinating enzyme complexes. The Journal of biological chemistry. 2009; 284(8):5343-51; Cohn M A, et al. A UAF1-containing multisubunit protein complex regulates the Fanconi anemia pathway. Molecular cell. 2007; 28(5):786-97; Kee Y, et al., WDR20 regulates activity of the USP12 UAF1 deubiquitinating enzyme complex. Journal of Biological Chemistry. 2010; 285(15):11252-7; and Mistry H, Hsieh G, et al. Small-molecule inhibitors of USP1 target ID1 degradation in leukemic cells. Molecular cancer therapeutics. 2013; 12(12):2651-62.

In a further assay the test system is USP1-Trunc. Briefly: Ub-CHOP2 deubiquitination assay, Trunc-USP1. Type of assay: biochemical. The protocol:
as §2, §3

Assay [4] addresses T2, full-length USP1 / forked DNA (Homo sapiens, UniProt O94782).
T2 construct: purchased Boston Biochem / R&D systems E564
T2 sequence (O94782 1-785): T1 sequence (O94782 1-785)
The assay is described as follows: Electromobility shift assay of USP1 with forked DNA. Type of assay: binding. As to conditions: 0-300 nM USP1, 0-1000 nM ML323, forked DNA. On the procedure:
FIG. 11C. Electromobility shift assay of 0-300 nM of USP1 incubated with 0-1000 nM of ML323 and forked DNA.
Recombinant USP1 and UAF1 proteins from R&D systems (E564, E566) were used for some electromobility shift assays and in vitro deubiquitination assays. Electromobility shift assays were performed by pre-incubating fluorophore (Cy3)-tagged DNA and purified protein in binding buffer (20 mM Hepes (pH 7.6), 0.1M KCl, 5 mM MgCl2, 3% (v/v) glycerol, 0.25 mg/ml BSA, 0.05 mM EDTA, 0.5 mM DTT, 0.01% (v/v) NP-40) for 30 min on ice. Samples were then loaded onto 6% polyacrylamide gels and ran at 65V in 0.5× TBE for 135 min at 4° C. Gels were visualized using the LAS-4000 imaging system (GE Healthcare Life Sciences, Pittsburgh, PA). DNA used for Ub-AMC, Ub-CHOP2 and electromobility shift assay were 40 bp in length and were designed to have minimal potential of secondary structure formation.

The test system of assay [5] is PARP inhibitor resistant UWB1.289 SYR14 cells. Briefly: Clonogenic assay in PARP inhibitor resistant UWB1.289 SYR14. Format: cell-based. On the procedure:
FIG. 23A. Quantification of colonies after clonogenic assay of parental BRCA1-deficient UWB1.289 cells and PARP inhibitor resistant UWB1.289 SYR14 cells treated with USP1 inhibitor ML323.
as §1

Assay [6] relates to PARP inhibitor resistant BRCA1-deficient cells (53BP1 silencing). The assay is described as follows: Sensitivity of PARP inhibitor resistant cells with restored HR (53BP1 silencing). Type of assay: cell-based.
The next assay concerns the target T3, USP1 (Homo sapiens, UniProt O94782).
T3 construct: endogenous in cells
Briefly: Western blot of USP1 with and without ML323. Format: cell-based. The protocol:
FIG. 8F. Western blot of USP1 with and without ML323 treatment. Following inhibition of USP1 deubiquitinating enzyme (DUB) activity, USP1 autocleavage is inhibited, resulting in a more intense top USP1 band. In addition, Ser313 phosphorylation is induced, resulting in a higher MW band in the blot.
Cells were lysed with lysis buffer (300 mM NaCl, 50 mM Tris-Cl, 1 mM EDTA, 0.5% NP-40), lysates resolved on denaturing Nupage (Invitrogen, Carlsbad, CA) polyacrylamide gels and transferred onto nitrocellulose membranes. Membranes were blocked with 5% milk in TBST, and probed with primary and secondary antibodies respectively, then detected with chemiluminescence (Western Lightning, Perkin Elmer, Waltham, MA).
(A western blot detects proteins with antibodies after separation by electrophoresis.)

For assay [7], the system named is BRCA1-deficient UWB1.289 cells. The assay is described as follows: Colony assay, ML323 combined with Olaparib in UWB1.289. Format: cell-based. As to conditions: 0 nM or 25 nM Olaparib and increasing doses of ML323. On the procedure:
FIG. 14. USP1 inhibition is non-epistatic with PARP inhibitors in BRCA1 deficient cells (Top: BRCA1-deficient UWB1.289 cells treated with 0 nM or 25 nM of Olaparib and increasing doses of USP1 inhibitor ML323. Bottom: Representative pictures of UWB1.289 colonies).
as §1

A further assay relates to FANCD2-Ub. As to conditions: cited from earlier work.

T3 sequence (Q8TAF3 whole entry partner, one chain of several): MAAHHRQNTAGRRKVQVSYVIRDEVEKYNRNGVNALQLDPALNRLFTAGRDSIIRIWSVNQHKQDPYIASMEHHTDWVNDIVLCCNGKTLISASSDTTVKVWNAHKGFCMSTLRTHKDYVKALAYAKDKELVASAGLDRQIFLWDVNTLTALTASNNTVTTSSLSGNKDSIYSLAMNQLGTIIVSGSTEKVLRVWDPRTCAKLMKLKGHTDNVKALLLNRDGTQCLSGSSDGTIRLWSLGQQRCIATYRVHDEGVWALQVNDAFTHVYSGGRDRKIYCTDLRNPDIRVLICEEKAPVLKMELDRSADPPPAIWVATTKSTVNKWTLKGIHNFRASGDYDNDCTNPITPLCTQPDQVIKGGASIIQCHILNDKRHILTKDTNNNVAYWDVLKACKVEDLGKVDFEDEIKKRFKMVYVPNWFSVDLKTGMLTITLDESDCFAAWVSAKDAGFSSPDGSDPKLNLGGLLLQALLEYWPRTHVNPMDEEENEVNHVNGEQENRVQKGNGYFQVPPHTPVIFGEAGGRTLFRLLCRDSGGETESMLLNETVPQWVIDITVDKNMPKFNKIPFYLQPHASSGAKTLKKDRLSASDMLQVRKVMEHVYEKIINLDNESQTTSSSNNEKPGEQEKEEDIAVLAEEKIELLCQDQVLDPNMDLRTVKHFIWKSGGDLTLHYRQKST

On to `Cc1cnc(-c2ccccc2C(C)C)nc1NCc1ccc(-n2ccnn2)cc1` [ML323], for which the “growth of UWB1.289 cells” value in assay [1] is “reduced growth”. Besides, the “fork degradation following hydroxyurea treatment” value in assay [2] is “enhanced fork degradation”. The “DUB activity of wild-type, full-length USP1” value in assay [3] is listed as “inhibits”. Further, the “DUB activity of USP1-Trunc” value in the assay on USP1-Trunc is recorded as “inhibits”. Further, in [4], the “DNA binding activity of full-length USP1” value is listed as “does not interfere”. The “sensitivity of PARP inhibitor resistant cells resulting from fork stabilization” value in [5] is “remained sensitive”. In assay [6], the “sensitivity of PARP inhibitor resistant cells resulting from restoration of HR” value is “resistant”. Further, at USP1, the “USP1 Ser313 phosphorylation” value is on record as “induced” and the USP1 autocleavage result is listed as “inhibited”. Also, the “interaction of USP1 inhibition with PARP inhibitors in BRCA1 deficient cells” value in assay [7] is reported as “non-epistatic”. In the assay with FANCD2-Ub, the FANCD2 deubiquitination result is listed as “blocks” and the “cellular FANCD2-Ub level” value is “accumulation”.
